{
  "source": "patent US20250034586A1",
  "about": "“METHOD FOR EDITING BANANA GENES” (Tropic Biosciences UK Limited, priority 2021, published 2025)",
  "key": {"[1]": {"test_system": "banana embryos or leaf material", "assay": "Comparison of selection using ALS inhibitor, G418 or hygromycin (genotyping of embryos or leaf material)", "format": "cell-based", "source_text": "In every case, regenerated material was transformed with constructs containing T-DNA that would generate resistance in positive transformants."}, "banana ECS": {"test_system": "banana ECS", "assay": "Comparison of Agrobacterium transformation and particle bombardment under CSF selection", "format": "cell-based", "conditions": "CSF 25 μg/L, particle bombardment", "procedure": "Transformation using agrobacterium and particle bombardment was compared.\nBanana ECS with cells 2/3 days old was pelleted and resuspended in CS medium. 0.5 mL of the suspension (approximately 0.1 mL of ECS) was split accordingly to the number of transformations into small Eppendorf tubes. The cells were incubated at 45° C. for 5 min and after they had cooled down for another 5 min. Then, 1 mL of agrobacterium suspension was added to the banana ECS. The mixture was mixed well and spun down at 1000 rpm for 5 min, and then, it was incubated for 25 min at room temperature. The banana cells were pooled, and the bacteria suspension was removed. The cells were inoculated in CS plates supplemented with acetosyringone 100 μM for 3 days at room temperature to promote transformation.\nAfter 3 days, the banana ECS were collected from the previous media and transferred to CS media supplemented with cefotaxime 300 mg/L. One week later, the banana cells were transferred to EDM plates supplemented with cefo 300 mg/L (control), or cefo 300 mg/L and CSF 25 μg/L or cefo 300 mg/L and CSF 50 μg/L. The media was refreshed every 2 weeks until embryos were developed. Subsequently, the banana embryos were transferred to maturation media without CSF (EMM) for a month and then they were transferred to germination medium (GM4) without CSF until shoots developed."}, "Sugar cane callus": {"test_system": "Sugar cane callus", "conditions": "after 5 weeks; 3.6, 20, 50, 200, 500 μg/L tested; cited from earlier work"}, "[2]": {"test_system": "Banana embryogenic cell suspensions (ECS)", "assay": "CSF kill curves in banana ECS (number of embryos after short CSF treatment)", "format": "cell-based", "conditions": "for Number of banana embryos developed (Avg): 3 months after treatment", "procedure": "Banana embryogenic cell suspensions (ECS) were pelleted in a falcon tube and mixed with CS (cell suspension) medium to a final cell density of 1-3%. An equal volume of the mixture was split into 6 flasks and the relevant amount of CSF was added to the final concentrations of 0, 10, 20, 50, 100 and 500 μg/L (1st kill curve) or 0, 0.5, 5, 50 and 100 mg/L (2nd kill curve). The ECS-CSF mixtures were placed/inoculated in 6 well plates (5 mL per well) and incubated at 65 rpm in the dark for 3, 5, 10, 15 days at 25° C.\nAt each time point, the ECS were collected in a cell strainer and washed with CS (cell suspension) medium to remove all the CSF. The cells were collected from the strainer and inoculated into embryo developing media (EDM) plates and developed for 2-3 months (until fully developed embryos were observed). The cells/embryos were subcultured every month. Each treatment was performed in triplicate and treated independently.\nThe number of embryos was assessed 2-3 months after CSF treatment. The embryos were counted under a stereo microscope using a 50-square grid to help the counting. For plates with too many embryos, only 3 squares from the 50 were counted and then the number of embryos was normalised for all of the plate. For the other plates all embryos were counted. Mean values±standard deviation (Stdev) were obtained from 3 technical replicates."}},
  "data": [
    {"smiles": "COc1nc(C)nc(NC(=O)NS(=O)(=O)c2ccccc2Cl)n1", "note": "[CSF, chlorsulfuron]", "values": [
      {"measurement": "Editing frequency", "setting": "[1]; CSF selected material", "result": "90-94%"},
      {"measurement": "Efficiency of generating transgenic lines of banana", "setting": "[1]; CSF selection, embryos and shoots", "result": "75-84%"},
      {"measurement": "Editing frequency", "setting": "[1]; Embryos, CSF selection", "result": "57/63 = 90.5%"},
      {"measurement": "Non-transgenic edited", "setting": "[1]; Embryos, CSF selection", "result": "19/584 = 3.2%"},
      {"measurement": "Transgenic frequency", "setting": "[1]; Embryos, CSF selection", "result": "344/408 = 84.3%"},
      {"measurement": "Editing frequency", "setting": "[1]; Shoots, CSF selection", "result": "34/36 = 94.4%"},
      {"measurement": "Non-transgenic edited", "setting": "[1]; Shoots, CSF selection", "result": "3/46 = 6.5%"},
      {"measurement": "Transgenic frequency", "setting": "[1]; Shoots, CSF selection", "result": "53/70 = 75.7%"},
      {"measurement": "Suitability for selection of edited bombarded cells", "setting": "banana ECS", "result": "too strong for selection of edited bombarded cells"},
      {"measurement": "Best concentration for selection", "setting": "Sugar cane callus", "result": 3.6, "unit": "µg/L"},
      {"measurement": "Embryo number, 1st CSF kill curve", "setting": "[2]; 0, 10, 20, 50, 200, 500 μg/L CSF for 3, 5, 10 and 15 days", "result": "major differences in embryo number were not observed"},
      {"measurement": "Fold-change non-CSF/+CSF (number of embryos)", "setting": "[2]; 0.5 mg/L CSF for 5dd", "result": 2.9},
      {"measurement": "Number of banana embryos developed (Avg)", "setting": "[2]; 0.5 mg/L CSF for 5dd, 3 technical replicates", "result": 1109},
      {"measurement": "Fold-change non-CSF/+CSF (number of embryos)", "setting": "[2]; 0.5 mg/L CSF for 10dd", "result": 32.6},
      {"measurement": "Number of banana embryos developed (Avg)", "setting": "[2]; 0.5 mg/L CSF for 10dd", "result": 127},
      {"measurement": "Fold-change non-CSF/+CSF (number of embryos)", "setting": "[2]; 0.5 mg/L CSF for 15dd", "result": 22.3},
      {"measurement": "Number of banana embryos developed (Avg)", "setting": "[2]; 0.5 mg/L CSF for 15dd", "result": 217},
      {"measurement": "Fold-change non-CSF/+CSF (number of embryos)", "setting": "[2]; 5 mg/L CSF for 5dd", "result": 24.9},
      {"measurement": "Number of banana embryos developed (Avg)", "setting": "[2]; 5 mg/L CSF for 5dd", "result": 127},
      {"measurement": "Fold-change non-CSF/+CSF (number of embryos)", "setting": "[2]; 5 mg/L CSF for 10dd", "result": 229.9},
      {"measurement": "Number of banana embryos developed (Avg)", "setting": "[2]; 5 mg/L CSF for 10dd", "result": 18},
      {"measurement": "Fold-change non-CSF/+CSF (number of embryos)", "setting": "[2]; 5 mg/L CSF for 15dd", "result": 167.0},
      {"measurement": "Number of banana embryos developed (Avg)", "setting": "[2]; 5 mg/L CSF for 15dd", "result": 29},
      {"measurement": "Decrease in the number of embryos", "setting": "[2]; 5 mg/L CSF for 10 days", "result": "higher than 200 ×"},
      {"measurement": "Fold-change non-CSF/+CSF (number of embryos)", "setting": "[2]; 50 mg/L CSF for 5dd", "result": 54.5},
      {"measurement": "Number of banana embryos developed (Avg)", "setting": "[2]; 50 mg/L CSF for 5dd", "result": 58},
      {"measurement": "Fold-change non-CSF/+CSF (number of embryos)", "setting": "[2]; 50 mg/L CSF for 10dd", "result": 459.8},
      {"measurement": "Number of banana embryos developed (Avg)", "setting": "[2]; 50 mg/L CSF for 10dd", "result": 9},
      {"measurement": "Fold-change non-CSF/+CSF (number of embryos)", "setting": "[2]; 50 mg/L CSF for 15dd", "result": 1210.5},
      {"measurement": "Number of banana embryos developed (Avg)", "setting": "[2]; 50 mg/L CSF for 15dd", "result": 4},
      {"measurement": "Fold-change non-CSF/+CSF (number of embryos)", "setting": "[2]; 100 mg/L CSF for 5dd", "result": 55.5},
      {"measurement": "Number of banana embryos developed (Avg)", "setting": "[2]; 100 mg/L CSF for 5dd", "result": 57},
      {"measurement": "Fold-change non-CSF/+CSF (number of embryos)", "setting": "[2]; 100 mg/L CSF for 10dd", "result": 517.3},
      {"measurement": "Number of banana embryos developed (Avg)", "setting": "[2]; 100 mg/L CSF for 10dd", "result": 8},
      {"measurement": "Fold-change non-CSF/+CSF (number of embryos)", "setting": "[2]; 100 mg/L CSF for 15dd", "result": 345.9},
      {"measurement": "Number of banana embryos developed (Avg)", "setting": "[2]; 100 mg/L CSF for 15dd", "result": 14},
      {"measurement": "CSF concentrations at which colour changes in banana ECS were observed", "setting": "[2]; 2nd kill curve, after treatment", "result": "higher than 5 mg/L"},
      {"measurement": "Minimal lethal dose (concentration reducing number of embryos 100×; measure of success met)", "setting": "[2]; 10 days of treatment", "result": 5, "unit": "mg/L"},
      {"measurement": "Killing of banana cells", "setting": "[2]; five days of treatment, 2nd kill curve", "result": "inefficient for killing banana cells"}
    ]}
  ]
}
